Assay results published in patent publication US9278922B2 (ABBVIE INC., priority 2009, dated 2016).

What follows are molecules tested on HCV 1b-Con-1 replicon (assay: HCV 1b-Con-1 replicon assay (luciferase reporter gene, HuH-7 cells)). Conditions: Hepatitis C virus, Huh-7, luciferase reporter gene activity in the replicon, in the presence of 5% FBS.
Format: cell-based, Hepatitis C virus (HCV) genotype 1b-Con1

| Structure (SMILES) | EC50 |
| --- | --- |
| O=C(Nc1ccc(CN(Cc2ccc(NC(=O)[C@@H]3CCCN3C(=O)OCc3ccccc3)cc2)c2ccccc2)cc1)C1CCCN1C(=O)OCc1ccccc1 (stereo partly drawn) [Example 4, (2S,2′S)-benzyl 2,2′-(4,4′-(phenylazanediyl)bis(methylene)bis(4,1-phenylene)bis(azanediyl))bis(oxomethylene)dipyrrolidine-1-carboxylate] | 10 to 100 nM |
| CCN(CC)[C@@H](C(=O)N1CCC[C@H]1C(=O)Nc1ccc(CN(Cc2ccc(NC(=O)[C@@H]3CCCN3C(=O)[C@@H](c3ccccc3)N3CCCC3)cc2)c2ccc(F)cc2)cc1)c1ccccc1 [Example 83, (2S)-1-[(2R)-2-(diethylamino)-2-phenylacetyl]-N-(4-{[(4-fluorophenyl){4-[({(2S)-1-[(2R)-2-phenyl-2-pyrrolidin-1-ylacetyl]pyrrolidin-2-yl}carbonyl)amino]benzyl}amino]methyl}phenyl)pyrrolidine-2-carboxamide] | < 1 nM |
| COC(=O)N[C@H](C(=O)N1CC=C[C@H]1C(=O)Nc1ccc(CN(Cc2ccc(NC(=O)[C@@H]3C=CCN3C(=O)[C@@H](NC(=O)OC)C(C)(C)C)cc2)c2ccc(F)cc2)cc1)C(C)(C)C [Example 125, methyl [(1S)-1-{[(2S)-2-{[4-({(4-fluorophenyl)[4-({[(2S)-1-{(2S)-2-[(methoxycarbonyl)amino]-3,3-dimethylbutanoyl}-2,5-dihydro-1H-pyrrol-2-yl]carbonyl}amino)benzyl]amino}methyl)phenyl]carbamoyl}-2,5-dihydro-1H-pyrrol-1-yl]carbonyl}-2,2-dimethylpropyl]carbamate] | < 1 nM |
| COC(=O)N[C@@H](CC(C)C)C(=O)N1CCC[C@H]1C(=O)Nc1ccc(CN(Cc2ccc(NC(=O)[C@@H]3CCCN3C(=O)[C@H](CC(C)C)NC(=O)OC)cc2)c2ccccc2)cc1 [Example 45, dimethyl [(phenylimino)bis{methanediylbenzene-4,1-diylcarbamoyl(2S)pyrrolidine-2,1-diyl[(2S)-4-methyl-1-oxopentane-1,2-diyl]}]biscarbamate] | 1 to 10 nM |
| CCN(CC)[C@@H](C(=O)N1CCC[C@H]1C(=O)Nc1ccc(CN(Cc2ccc(NC(=O)[C@@H]3CCCN3C(=O)[C@@H](c3ccccc3)N(CC)CC)cc2)c2ccc(F)cc2)cc1)c1ccccc1 [Example 54, (2S,2′S)-N,N-{[(4-fluorophenyl)imino]bis(methanediylbenzene-4,1-diyl)}bis{1-[(2R)-2-(diethylamino)-2-phenylacetyl]pyrrolidine-2-carboxamide}] | < 1 nM |
| COC(=O)N[C@H](C(=O)N1CCC[C@H]1C(=O)Nc1ccc(CN(Cc2ccc(NC(=O)[C@@H]3CCCN3C(=O)[C@H](NC(=O)[C@H]3CCCO3)c3ccccc3)cc2)c2ccccc2)cc1)C(C)(C)C [Example 88, N-(methoxycarbonyl)-3-methyl-L-valyl-N-[4-({phenyl[4-({1-[(2R)-2-phenyl-2-{[(2R)-tetrahydrofuran-2-ylcarbonyl]amino}acetyl]-L-prolyl}amino)benzyl]amino}methyl)phenyl]-L-prolinamide] | < 1 nM |
| COC(=O)N[C@H](C(=O)N1CCC[C@H]1C(=O)Nc1ccc(CN(Cc2ccc3[nH]c([C@@H]4CCCN4C(=O)[C@@H](NC(=O)OC)C(C)(C)O)nc3c2)c2ccc(F)cc2)cc1)C(C)(C)O [Example 99, 3-hydroxy-N-(methoxycarbonyl)-L-valyl-N-[4-({(4-fluorophenyl)[(2-{(2S)-1-[3-hydroxy-N-(methoxycarbonyl)-L-valyl]pyrrolidin-2-yl}-1H-benzimidazol-5-yl)methyl]amino}methyl)phenyl]-L-prolinamide] | < 1 nM |
| COC(=O)N[C@H](C(=O)N1CCC[C@H]1C(=O)Nc1ccc(CN(Cc2ccc(NC(=O)[C@@H]3CCCN3C(=O)[C@@H](NC(=O)OC)C(C)(C)C)cc2)[C@@H]2CCOC2)cc1)C(C)(C)C [Example 44, dimethyl ([(3R)-tetrahydrofuran-3-ylimino]bis{methanediylbenzene-4,1-diylcarbamoyl(2S)pyrrolidine-2,1-diyl[(2S)-3,3-dimethyl-1-oxobutane-1,2-diyl]})biscarbamate] | 10 to 100 nM |
| COC(=O)N[C@@H](CCO)C(=O)N1CCC[C@H]1C(=O)Nc1ccc(CN(Cc2ccc(NC(=O)[C@@H]3CCCN3C(=O)[C@H](CCO)NC(=O)OC)cc2)c2ccc(F)cc2)cc1 [Example 134, dimethyl ([(4-fluorophenyl)imino]bis{methanediylbenzene-4,1-diylcarbamoyl(2S)pyrrolidine-2,1-diyl[(2S)-4-hydroxy-1-oxobutane-1,2-diyl]})biscarbamate] | 1 to 10 nM |
| COC(=O)N[C@H](C(=O)N1CCC[C@H]1C(=O)Nc1ccc(CN(Cc2ccc(NC(=O)[C@@H]3CCCN3C(=O)[C@@H](NC(=O)OC)C(C)(C)C)cc2)c2ccccc2)cc1)[C@H]1CCOC1 [Example 53, N-(methoxycarbonyl)-3-methyl-L-valyl-N-(4-{[{4-[(1-{(2S)-2-[(methoxycarbonyl)amino]-2-[(3R)-tetrahydrofuran-3-yl]acetyl}-L-prolyl)amino]benzyl}(phenyl)amino]methyl}phenyl)-L-prolinamide] | < 1 nM |
| CC[C@@H](C)[C@H](NC(=O)OC)C(=O)N1CCC[C@H]1C(=O)Nc1ccc(CN(Cc2ccc(NC(=O)[C@@H]3CCCN3C(=O)[C@@H](NC(=O)OC)[C@H](C)CC)cc2)c2ccccc2)cc1 [Example 50, dimethyl[(phenylimino)bis{methanediylbenzene-4,1-diylcarbamoyl(2S)pyrrolidine-2,1-diyl[(2S,3R)-3-methyl-1-oxopentane-1,2-diyl]}]biscarbamate] | < 1 nM |
| O=C(Nc1ccc(CN(Cc2ccc(NC(=O)[C@@H]3COCN3C(=O)OCc3ccccc3)cc2)c2ccc(F)cc2)cc1)[C@@H]1COCN1C(=O)OCc1ccccc1 [Example 126, dibenzyl (4S,4′S)-4,4′-{[(4-fluorophenyl)imino]bis(methanediylbenzene-4,1-diylcarbamoyl)}bis(1,3-oxazolidine-3-carboxylate)] | 10 to 100 nM |
| CCC[C@H](NC(=O)OC)C(=O)N1CCC[C@H]1C(=O)Nc1ccc(CN(Cc2ccc(NC(=O)[C@@H]3CCCN3C(=O)[C@H](CCC)NC(=O)OC)cc2)c2ccccc2)cc1 [Example 46, dimethyl [(phenylimino)bis{methanediylbenzene-4,1-diylcarbamoyl(2S)pyrrolidine-2,1-diyl[(2S)-1-oxopentane-1,2-diyl]}]biscarbamate] | 1 to 10 nM |
| COC(=O)N[C@H](C(=O)N1CCC[C@H]1C(=O)Nc1ccc(CN(Cc2ccc(NC(=O)[C@@H]3CCCN3C(=O)[C@@H](c3ccccc3)N3CCOCC3)cc2)c2ccccc2)cc1)C(C)(C)C [Example 58, N-(methoxycarbonyl)-3-methyl-L-valyl-N-[4-({[4-({1-[(2R)-2-morpholin-4-yl-2-phenylacetyl]-L-prolyl}amino)benzyl](phenyl)amino}methyl)phenyl]-L-prolinamide] | < 1 nM |
| COC(=O)N[C@@H]1CCC[C@H]2CC[C@@H](C(=O)Nc3ccc(CN(Cc4ccc(NC(=O)[C@@H]5CC[C@@H]6CCC[C@@H](NC(=O)OC)C(=O)N65)cc4)c4ccccc4)cc3)N2C1=O [Example 63, dimethyl [(phenylimino)bis{methanediylbenzene-4,1-diylcarbamoyl[(3S,6R,9aS)-5-oxooctahydro-1H-pyrrolo[1,2-a]azepine-3,6-diyl]}]biscarbamate] | 10 to 100 nM |
| CCC(O)(CC)C(C(=O)N1CCC[C@H]1C(=O)Nc1ccc(CN(Cc2ccc(NC(=O)[C@@H]3CCCN3C(=O)C(c3ccccc3)C(O)(CC)CC)cc2)c2ccc(F)cc2)cc1)c1ccccc1 (stereo partly drawn) [Example 105, (2S,2′S)-N,N′-{[(4-fluorophenyl)imino]bis(methanediylbenzene-4,1-diyl)}bis[1-(3-ethyl-3-hydroxy-2-phenylpentanoyl)pyrrolidine-2-carboxamide]] | < 1 nM |
